Patent US10793543B2, “Selective C-KIT kinase inhibitor” (PRECEDO PHARMACEUTICALS CO., LTD, priority 2016, dated 2020)

Assays:
[1] = tested on: Tel-cKit-BaF3 cells (KIT WT); experiment: Cell proliferation, CCK-8, Tel-cKit-BaF3; assay type: cell-based; conditions: Mus musculus, 72 hours
Source text: (§1) In addition, in the present example, further uses: mouse P210/BaF3 (stably expressing P210 Bcr-Abl mutant gene), mouse Tel-ABL-BaF3 (stably expressing wild-type ABL kinase), mouse Tel-cKit-BaF3 (stably expressing C-KITwild-type kinase), mouse Tel-cKit/V559D-BaF3 (stably expressing C-KIT V559D mutant kinase), mouse Tel-cKit/V559D/V654A-BaF3 (stably expressing C-KIT V559D/V654A mutant kinase), mouse Tel-cKit/N822K-BaF3 (stably expressing C-KIT N822K mutant kinase), mouse Tel-cKit/V654A-BaF3 (stably expressing C-KIT V654A mutant kinase), mouse Tel-cKit/L567P-BaF3 (stably expressing C-KIT L567P mutant kinase), mouse Tel-cKit/T670I-BaF3 (stably expressing C-KIT T670I mutant kinase), mouse Tel-PDGFRα-BaF3 (stably expressing PDGFRα kinase), mouse Tel-PDGFRβ-BaF3 (stably expressing PDGFRβ kinase), mouse Tel-VEGFR2-BaF3 (stably expressing VEGFR2 kinase), mouse Tel-RET-BaF3 (stably expressing RET kinase). The above cell lines were all constructed by our laboratory according to the following method: the kinase region sequences of human P210 Bcr-Abl, ABL, C-KIT, C-KIT V559D, C-KIT V559D/V654A, C-KIT N822K, C-KIT V654A, C-KIT L567P, C-KIT T670I, PDGFRα, PDGFRβ, VEGFR2, RET were amplified respectively by PCR, inserted respectively into MSCV-Puro vectors harboring N-terminal TEL fragment and/or NPM fragment and/or TPR fragment (Clontech), then the vectors were stably transfected into mouse BaF3 cells by retrovirus methods and growth factor IL-3 was removed, eventually obtaining cell lines that are transferred protein (P210 Bcr-Abl, ABL, C-KIT, C-KIT V559D, C-KIT V559D/V654A, C-KIT N822K, C-KIT V654A, C-KIT L567P, C-KIT T670I, PDGFRα, PDGFRβ, VEGFR2, RET)-dependent.
(§2) The cells were incubated for 72 hours, and then the number of viable cells was quantified with a microplate reader by using CCK-8 Cell Viability Assay Kit (purchased from Bestbio Company, Shanghai, China) (CCK-8 can be reduced by dehydrogenase in living cells to a highly water-soluble yellow formazan product, and the amount of formazan produced is proportional to the number of living cells).

BaF3 cells = experiment: Cell proliferation, CCK-8, parental BaF3; assay type: cell-based; conditions: Mus musculus, 72 hours
Source text: (§3) In the present example, the following cells were used: chronic myelogenous leukemia cells K562 (expressing P210 Bcr-Abl mutant gene), human megakaryocytic leukemia cells MEG-01 (expressing P210 Bcr-Abl mutant gene), human peripheral blood basophilic leukemia cells Ku812 (expressing Bcr-Abl mutant gene) (all above cells purchased from ATCC, USA), human gastrointestinal stromal tumor cell lines GIST-T1 cells (expressing wild-type C-KIT gene) (purchased from Cosmo Bio Co., Ltd., Japan), human gastrointestinal stromal tumor cell lines GIST-882 cells (expressing wild-type C-KIT gene) (presented by the Professor Gray Lab, Dana-Farber Cancer Institute, Harvard University, USA), mouse pro-B cells BaF3 (purchased from ATCC, USA).
as §2

[2] = tested on: Tel-cKit/V559D-BaF3 cells (KIT V559D); experiment: Cell proliferation, CCK-8, Tel-cKit/V559D-BaF3; assay type: cell-based; conditions: Mus musculus, 72 hours
Source text: as §1, §2

[3] = tested on: Tel-cKit/V654A-BaF3 cells (KIT V654A); experiment: Cell proliferation, CCK-8, Tel-cKit/V654A-BaF3; assay type: cell-based; conditions: Mus musculus, 72 hours
Source text: as §1, §2

[4] = tested on: Tel-PDGFRα-BaF3 cells (PDGFRα); experiment: Cell proliferation, CCK-8, Tel-PDGFRα-BaF3; assay type: cell-based; conditions: Mus musculus, 72 hours
Source text: as §1, §2

[5] = tested on: Tel-PDGFRβ-BaF3 cells (PDGFRβ); experiment: Cell proliferation, CCK-8, Tel-PDGFRβ-BaF3; assay type: cell-based; conditions: Mus musculus, 72 hours
Source text: as §1, §2

[6] = tested on: Tel-RET-BaF3 cells (RET WT); experiment: Cell proliferation, CCK-8, Tel-RET-BaF3; assay type: cell-based; conditions: Mus musculus, 72 hours
Source text: as §1, §2

[7] = tested on: Tel-VEGFR2-BaF3 cells (VEGFR2); experiment: Cell proliferation, CCK-8, Tel-VEGFR2-BaF3; assay type: cell-based; conditions: Mus musculus, Tel-VEGFR2-BaF3, VEGFR2, 72 hours
Source text: as §1, §2

[8] = tested on: cells expressing wild-type C-KIT kinase; experiment: Cell proliferation, C-KIT cells; assay type: cell-based; conditions: cells expressing C-KIT kinase, summary of Table 2
Source text: as §3, §1, §2

[9] = tested on: Tel-cKit/N822K-BaF3 cells (KIT N822K); experiment: Cell proliferation, CCK-8, Tel-cKit/N822K-BaF3; assay type: cell-based; conditions: Mus musculus, 72 hours
Source text: as §1, §2

GIST-T1 cells = experiment: Cancer cell proliferation, CCK-8, GIST-T1; assay type: cell-based; conditions: Homo sapiens, GISTT1, GIST-T1, KIT WT, 72 hours
Source text: as §3, §2

[10] = Acute toxicity assay in mice, single oral gavage; assay type: in vivo; conditions: for Number of death (number of death/number of animals in each group): female mice, 7 days observation
Experimental: 1. 4-6 week-old Bal b/c female mice were purchased from Shanghai SLAC Experimental Animal Co., Ltd., and were raised in a SPF-level laboratory. Drinking water and padding were both subjected to aseptic processing via high-pressure disinfection, and all operations of the mice were conducted under aseptic conditions; 10 healthy mice were selected, and were balanced and randomly divided into 5 groups according to their weights.
2. Specific Information for Administration
Route of administration: oral gavage
Observation period: 7 days.
3. Observation Indicators
Weighing frequency: upon grouping, the day of administration (D0) to the seventh day after administration (D7). Based on the mouse weight on D0 (starting value of 100%), the graph of the relative body weight over time was plotted.
3.2. Clinical Symptoms Observation
Strict observation was carried out within 4 hours after administration, and then observation was carried out twice a day for a total of 7 days. Observation was carried out and abnormal symptoms or phenomena in each of animals were recorded.
The number of animals died in each of dosage groups during the observation period.
Comprehensive determination was performed based on animal mortality, clinical symptoms and body weights.

[11] = tested on: Tel-cKit/T670I-BaF3 cells (KIT T670I); experiment: Cell proliferation, CCK-8, Tel-cKit/T670I-BaF3; assay type: cell-based; conditions: Mus musculus, 72 hours
Source text: as §1, §2

[12] = tested on: Tel-cKit/L576P-BaF3 cells (KIT L576P); experiment: Cell proliferation, CCK-8, Tel-cKit/L576P-BaF3; assay type: cell-based; conditions: Mus musculus, 72 hours
Source text: as §1, §2

[13] = tested on: phosphorylation of Bcr-Abl kinase and pathway proteins in K562 cells; experiment: Effects on cell signaling pathways (phosphorylation), K562; assay type: cell-based, human; conditions: K562, 0.1 μM, 2 hours
GIST-882 cells = experiment: Cancer cell proliferation, CCK-8, GIST-882; assay type: cell-based; conditions: Homo sapiens, GIST882, GIST-882, KIT WT, 72 hours
Source text: as §3, §2

[14] = tested on: Tel-cKit/V559D/V654A-BaF3 cells (KIT V559D/V654A); experiment: Cell proliferation, CCK-8, Tel-cKit/V559D/V654A-BaF3; assay type: cell-based; conditions: Mus musculus, 72 hours
Source text: as §1, §2

SMILES | GI50 [1] [nM] | GI50 (BaF3 cells) [nM] | GI50 [2] [nM] | GI50 [3] [nM] | GI50 [4] [nM] | GI50 [5] [nM] | GI50 [6] [nM] | GI50 [7] [nM] | GI50 [9] [nM] | GI50 (GIST-T1 cells) [nM] | other results
Cc1ccc(NC(=O)c2ccc(CN3CCN(C)CC3)c(C(F)(F)F)c2)cc1OC1CCN(C(=O)c2ccncc2)CC1 [B] | 170 | > 10000 | 20 | 585 | 15 | 40 | 300 | 7 | 130 | 27 | GI50 [8]: < 500 nM
Cc1ccc(NC(=O)c2ccc(CN3CCN(C)CC3)c(C(F)(F)F)c2)cc1OC1CCN(C(=O)c2cccnc2)CC1 [Compound A] | 147 | > 10000 | 134 | 2260 | 95 | 52 | 390 | 17 | 378 | 14 | Number of death (number of death/number of animals in each group) ([10]; 250 mg/kg single oral gavage): ♀: 0/2; Number of death (number of death/number of animals in each group) ([10]; 500 mg/kg single oral gavage): ♀: 0/2; clinical symptoms ([10]; 1000 mg/kg single oral gavage): started to be quiet and lie down around 40 minutes; mice died ([10]; 1000 mg/kg single oral gavage): 1; Number of death (number of death/number of animals in each group) ([10]; 1000 mg/kg single oral gavage): ♀: 1/2; clinical symptoms ([10]; 2000 mg/kg single oral gavage): gait of mice was unstable; mice died ([10]; 2000 mg/kg single oral gavage): 2; Number of death (number of death/number of animals in each group) ([10]; 2000 mg/kg single oral gavage): ♀: 2/2; GI50 [11]: 1010 nM; GI50 [12]: 321 nM; proteins in Bcr-Abl signaling pathways upstream and downstream [13]: very strong inhibitory effects; GI50 (GIST-882 cells): 67 nM; GI50 [14]: 2450 nM
